Assay results: patent US11680939B2, “Systems and methods for detecting bioactive compounds using sensors with pre-stimulated cells” (priority 2019, dated 2023)

Tested on: sensor cells
Test: Impedance response of a sensor with photosensitive living cells to light pulses on exposure to a cytotoxin (FIG. 9)
Format: cell-based
Conditions: toxin sample vs. clean sample, optically stimulated sensor cells
Excerpt: FIG. 2 illustrates an exemplary behavior of sensor cells when exposed to light according to some embodiments of the present invention. Some embodiments employ sensor cells which are genetically modified to express an opsin (e.g., channel rhodopsin, without loss of generality), and/or other channel proteins with a role in maintaining cellular homeostasis (e.g., potassium channel ROMK1, without loss of generality). In the illustrated example, exposure to light induces a sudden intake of sodium ions through the cell membrane, which may substantially change the membrane potential and therefore the measured impedance of the respective cell. […]
FIGS. 4-A-B show exemplary impedance responses of a sensor to a single light pulse and to a pulse train, respectively, according to some embodiments of the present invention wherein the sensor is prepared to contain cells having optically-sensitive ion channels. As the cellular membrane potential changes in response to the light pulse(s), the change is registered in the measured impedance of the sensor. […] This observation enables some embodiments of the present invention to detect and/or quantitate the target analyte from time series of impedance measurements. […]
A step 120 acquires a target impedance time series comprising a plurality of values, at least two of which are determined at distinct moments in time. […]

## C[C@@H]1O[C@@H](O[C@H]2C[C@@H](O)[C@]3(CO)[C@H]4[C@H](O)C[C@]5(C)[C@@H](C6=CC(=O)OC6)CC[C@]5(O)[C@@H]4CC[C@]3(O)C2)[C@H](O)[C@H](O)[C@H]1O [ouabain]
  response of the sensor to exposure to a cytotoxin (impedance response, membrane repolarization after light pulses): visible modifications of cell homeostasis
